Laboratory results reported in BindingDB's records for doi:10.7270/Q2BZ64GK (Burnham Center For Chemical Genomics, 2009).

Target: T1, Tyrosine-protein phosphatase non-receptor type 22 (Homo sapiens, UniProt Q9Y2R2)
T1 sequence (Q9Y2R2 whole entry): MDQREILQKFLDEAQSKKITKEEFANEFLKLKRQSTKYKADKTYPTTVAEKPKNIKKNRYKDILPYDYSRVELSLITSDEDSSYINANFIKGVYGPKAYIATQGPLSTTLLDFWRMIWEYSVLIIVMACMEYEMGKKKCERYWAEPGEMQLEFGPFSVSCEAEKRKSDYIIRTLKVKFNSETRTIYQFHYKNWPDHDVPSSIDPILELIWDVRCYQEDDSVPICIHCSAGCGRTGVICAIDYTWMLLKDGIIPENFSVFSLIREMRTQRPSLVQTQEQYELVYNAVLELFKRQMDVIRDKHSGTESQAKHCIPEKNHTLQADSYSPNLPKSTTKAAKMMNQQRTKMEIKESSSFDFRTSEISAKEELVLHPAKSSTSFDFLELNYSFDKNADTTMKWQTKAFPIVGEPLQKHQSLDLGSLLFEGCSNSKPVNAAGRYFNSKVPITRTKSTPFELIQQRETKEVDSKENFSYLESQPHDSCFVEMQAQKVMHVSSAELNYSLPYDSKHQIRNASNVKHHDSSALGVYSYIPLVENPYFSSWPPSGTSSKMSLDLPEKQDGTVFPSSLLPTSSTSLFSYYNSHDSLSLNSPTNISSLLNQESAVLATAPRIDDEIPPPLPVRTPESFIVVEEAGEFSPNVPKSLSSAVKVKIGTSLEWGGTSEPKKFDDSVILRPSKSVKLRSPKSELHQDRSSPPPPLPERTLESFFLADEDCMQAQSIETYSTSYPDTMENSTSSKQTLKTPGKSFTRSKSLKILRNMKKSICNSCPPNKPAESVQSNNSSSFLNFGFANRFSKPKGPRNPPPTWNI
Assay: PubChem AID 2135

IC50: > 100 µM
SMILES: CCOc1ccc2nc(NC(=O)CSc3cc(O)c4c(C)c(C)sc4n3)sc2c1 [2-[(2,3-dimethyl-4-oxidanylidene-5H-thieno[2,3-b]pyridin-6-yl)sulfanyl]-N-(6-ethoxy-1,3-benzothiazol-2-yl)ethanamide]
